Laboratory results taken from US6436441B1, “Hydrogel-forming sustained-release preparation” (Yamanouchi Pharmaceutical Co., Ltd., priority 1992, dated 2002).

Settings: JP method, 25 ± 5° C.; the additive itself

O=C(CO)[C@@H](O)[C@H](O)[C@H](O)CO [D-Fructose]
Solubility (volume of water required for dissolving 1 gram): 1 mL
